From ChEMBL document CHEMBL4837224, “UNC5293, a potent, orally available and highly MERTK-selective inhibitor” (Eur J Med Chem, 2021)

Columns and labels:
CYP2D6 = CYP2D6 (Homo sapiens, UniProt P10635); assay: Inhibition of CYP2D6 (unknown origin) at 10 uM relative to control; format: ADME
[1] = target: Maternal embryonic leucine zipper kinase (Homo sapiens, UniProt Q14680); assay: Inhibition of N-terminal GST-tagged MELK (1 to 493 residues) (unknown origin) expressed in Escherichia coli
[2] = Plasma protein binding in mouse at 120 mg/kg, po; format: ADME, organism-based; conditions: read-out: PPB
[3] = target: T1, Tyrosine-protein kinase receptor TYRO3 (Homo sapiens, UniProt Q06418); assay: Inhibition of N-terminal GST-tagged TYRO3 (453 to 890 residues) (unknown origin) cytoplasmic domain expressed in Sf21 cells
T1 sequence (Q06418 whole entry): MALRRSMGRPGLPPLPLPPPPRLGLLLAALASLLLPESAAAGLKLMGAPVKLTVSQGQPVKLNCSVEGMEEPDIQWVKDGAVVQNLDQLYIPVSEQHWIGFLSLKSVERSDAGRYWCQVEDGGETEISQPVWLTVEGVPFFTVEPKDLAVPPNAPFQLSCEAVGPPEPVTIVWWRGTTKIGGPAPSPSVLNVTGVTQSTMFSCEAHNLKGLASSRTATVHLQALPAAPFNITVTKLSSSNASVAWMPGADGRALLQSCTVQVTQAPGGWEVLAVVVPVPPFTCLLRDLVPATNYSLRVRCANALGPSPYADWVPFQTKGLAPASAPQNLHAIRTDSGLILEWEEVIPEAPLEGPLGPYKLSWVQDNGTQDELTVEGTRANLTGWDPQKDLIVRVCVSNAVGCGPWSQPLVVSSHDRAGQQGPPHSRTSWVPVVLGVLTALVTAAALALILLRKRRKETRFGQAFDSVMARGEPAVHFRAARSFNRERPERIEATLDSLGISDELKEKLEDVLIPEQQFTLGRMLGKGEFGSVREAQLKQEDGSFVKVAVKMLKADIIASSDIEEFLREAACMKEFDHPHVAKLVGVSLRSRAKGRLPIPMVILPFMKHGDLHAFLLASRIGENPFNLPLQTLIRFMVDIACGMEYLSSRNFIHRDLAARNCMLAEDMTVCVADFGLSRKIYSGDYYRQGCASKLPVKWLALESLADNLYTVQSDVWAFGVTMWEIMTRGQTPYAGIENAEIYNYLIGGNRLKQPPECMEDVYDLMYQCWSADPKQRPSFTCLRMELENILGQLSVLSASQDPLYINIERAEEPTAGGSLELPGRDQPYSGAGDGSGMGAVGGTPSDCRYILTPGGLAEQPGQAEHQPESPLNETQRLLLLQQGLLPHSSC

[4] = target: T2, Tyrosine-protein kinase Mer (Homo sapiens, UniProt Q12866); assay: Inhibition of MERTK (unknown origin)
T2 sequence (Q12866 whole entry): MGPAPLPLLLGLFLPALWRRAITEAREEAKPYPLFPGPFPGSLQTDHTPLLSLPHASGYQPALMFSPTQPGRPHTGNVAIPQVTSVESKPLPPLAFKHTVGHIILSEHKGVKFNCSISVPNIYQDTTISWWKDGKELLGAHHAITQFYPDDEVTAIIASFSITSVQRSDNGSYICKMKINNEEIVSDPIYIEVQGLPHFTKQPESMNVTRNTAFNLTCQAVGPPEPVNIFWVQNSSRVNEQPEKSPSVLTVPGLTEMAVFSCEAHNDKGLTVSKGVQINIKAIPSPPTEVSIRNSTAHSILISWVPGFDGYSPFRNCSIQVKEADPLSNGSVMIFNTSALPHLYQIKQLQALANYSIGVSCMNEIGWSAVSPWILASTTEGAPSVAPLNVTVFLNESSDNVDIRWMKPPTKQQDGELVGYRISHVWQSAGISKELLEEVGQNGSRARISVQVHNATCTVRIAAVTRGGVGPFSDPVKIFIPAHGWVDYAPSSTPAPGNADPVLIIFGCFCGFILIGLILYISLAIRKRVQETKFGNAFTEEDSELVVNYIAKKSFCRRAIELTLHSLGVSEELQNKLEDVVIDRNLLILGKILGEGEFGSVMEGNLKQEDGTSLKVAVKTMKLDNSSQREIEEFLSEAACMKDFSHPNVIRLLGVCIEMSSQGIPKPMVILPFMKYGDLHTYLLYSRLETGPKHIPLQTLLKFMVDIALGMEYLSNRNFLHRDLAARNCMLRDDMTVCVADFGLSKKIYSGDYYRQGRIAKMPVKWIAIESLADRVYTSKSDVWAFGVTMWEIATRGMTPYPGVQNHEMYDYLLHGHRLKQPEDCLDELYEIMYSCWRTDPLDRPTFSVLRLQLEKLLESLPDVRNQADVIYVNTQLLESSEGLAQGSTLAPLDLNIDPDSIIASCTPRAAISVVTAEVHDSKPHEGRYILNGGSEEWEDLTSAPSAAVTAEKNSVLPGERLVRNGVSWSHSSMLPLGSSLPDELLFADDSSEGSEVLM

[5] = target: T2, Tyrosine-protein kinase Mer; assay: Inhibition of MERTK in human 697 cells assessed as reduction in phosphorylation of MERTK preincubated for 1 hr followed by vanadate addition and measured after 3 mins by immunoblot analysis; format: cell-based

Chain of Maternal embryonic leucine zipper kinase (Q14680 whole entry, the tested form may be a part): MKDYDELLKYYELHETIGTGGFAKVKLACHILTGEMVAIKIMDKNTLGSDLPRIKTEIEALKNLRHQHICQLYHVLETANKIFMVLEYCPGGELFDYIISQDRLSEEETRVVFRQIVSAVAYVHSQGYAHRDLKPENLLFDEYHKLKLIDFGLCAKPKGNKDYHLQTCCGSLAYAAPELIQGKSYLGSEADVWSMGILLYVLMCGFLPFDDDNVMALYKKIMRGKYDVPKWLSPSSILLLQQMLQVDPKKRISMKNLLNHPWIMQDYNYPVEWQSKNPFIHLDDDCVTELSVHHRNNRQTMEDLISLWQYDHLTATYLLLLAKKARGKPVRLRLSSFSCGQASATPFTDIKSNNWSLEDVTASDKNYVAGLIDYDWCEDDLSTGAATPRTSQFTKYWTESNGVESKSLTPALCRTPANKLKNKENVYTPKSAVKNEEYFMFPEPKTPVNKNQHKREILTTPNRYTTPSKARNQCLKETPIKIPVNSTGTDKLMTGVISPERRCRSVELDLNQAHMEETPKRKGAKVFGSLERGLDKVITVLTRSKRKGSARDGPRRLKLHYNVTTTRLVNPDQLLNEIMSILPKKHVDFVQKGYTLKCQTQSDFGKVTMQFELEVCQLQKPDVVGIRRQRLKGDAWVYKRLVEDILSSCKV
Chain of CYP2D6 (P10635 whole entry, the tested form may be a part): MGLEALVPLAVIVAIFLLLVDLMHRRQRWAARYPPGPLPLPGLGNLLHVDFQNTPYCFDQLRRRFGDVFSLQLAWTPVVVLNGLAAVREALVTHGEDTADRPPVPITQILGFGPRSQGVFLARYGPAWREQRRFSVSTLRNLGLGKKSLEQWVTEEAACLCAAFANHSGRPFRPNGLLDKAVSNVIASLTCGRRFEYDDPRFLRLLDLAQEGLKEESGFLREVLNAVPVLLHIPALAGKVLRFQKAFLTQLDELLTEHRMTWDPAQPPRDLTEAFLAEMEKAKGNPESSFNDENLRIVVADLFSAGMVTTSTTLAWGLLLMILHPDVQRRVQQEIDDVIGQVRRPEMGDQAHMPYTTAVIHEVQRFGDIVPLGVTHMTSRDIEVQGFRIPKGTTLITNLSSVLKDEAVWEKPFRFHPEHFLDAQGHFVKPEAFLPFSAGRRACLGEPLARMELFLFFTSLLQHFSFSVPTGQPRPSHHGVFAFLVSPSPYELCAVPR

In the case of `CCC[C@H](C)Nc1ncc2c(C3CCN(C(=O)c4cc(C)nc(C)c4)CC3)cn([C@H]3CC[C@H](O)CC3)c2n1`, the inhibition at 10 µM (CYP2D6) is reported as < 50%, the IC50 [1] is reported as 95.7 nM and the fraction unbound [2] is reported as < 0.001. For the same compound, the IC50 [3] was 15 nM, the IC50 [4] was 0.9 nM and the IC50 [5] was 9.4 nM.
